The text below walks through data of ChEMBL document CHEMBL4339189, “Dissymmetric pyridyl-substituted 3,5-bis(arylidene)-4-piperidones as anti-hepatoma agents by inhibiting NF-κB pathway activation” (Eur J Med Chem, 2019).

A short description of data set [1]: Cytotoxicity against human HHL5 cells assessed as reduction in cell viability incubated for 24 hrs by MTT assay. The class given is cell-based. The note with it: HHL-5, 24 h. (Tetrazolium assays rely on reduction of a dye to a coloured formazan, in cell work by metabolically active cells.)
The next data set relates to Mus musculus. The experiment in a line: Antiinflammatory activity in human HepG2 cells xenografted Balb/c nude mouse assessed as reduction in TNFalpha protein expression at 10 mg/kg, ip administered every 2 days for 20 days and measured every 2 days by immunohistochemistry. The class given is functional, organism-based. A general note: Xenograft models place foreign cells or tissue in a host animal.

Data set [2] deals with HepG2. Briefly: Cytotoxicity against human HepG2 cells assessed as reduction in cell viability incubated for 24 hrs by MTT assay. To be noted: for IC50: HepG2, 24 h. The class given is functional, cell-based.
Data set [3] relates to HepG2. Briefly: Antitumor activity against human HepG2 cells xenografted in Balb/c nude mouse assessed as induction of wrinkled abnormalities on cell morphology at 10 mg/kg, ip administered every 2 days for 20 days and measured every 2 days by H and E staining based assay. The class given is functional, organism-based.
Data set [4] concerns HepG2. The experiment in a line: Antitumor activity against human HepG2 cells xenografted in Balb/c nude mouse assessed as tumor volume level at 10 mg/kg, ip administered every 2 days for 20 days and measured every 2 days. The format is functional.
Data set [5] deals with HepG2. The experiment in a line: Antitumor activity against human HepG2 cells xenografted in Balb/c nude mouse assessed as induction of incomplete cells at 10 mg/kg, ip administered every 2 days for 20 days and measured every 2 days by H and E staining based assay. The format is functional, organism-based.
A further data set deals with QGY-7703. Briefly: Cytotoxicity against human QGY7703 cells assessed as reduction in cell viability incubated for 24 hrs by MTT assay. The class given is functional, cell-based. To be noted: for IC50: QGY-7703, 24 h.
In data set [6] the test system is HepG2. The experiment in a line: Induction of apoptosis in human HepG2 cells xenografted in Balb/c nude mouse assessed as reduction in Bcl-2 protein expression at 10 mg/kg, ip administered every 2 days for 20 days and measured every 2 days by immunohistochemistry. The format is functional, organism-based.
The next data set relates to SMMC-7721. Briefly: Cytotoxicity against human SMMC7721 cells assessed as reduction in cell viability incubated for 24 hrs by MTT assay. The format is functional, cell-based. To be noted: for IC50: SMMC-7721, 24 h.
Data set [7] deals with RAW264.7. The experiment in a line: Antiinflammatory activity in mouse RAW264.7 cells assessed as inhibition of LPS-stimulated IL-6 production 6.0 uM preincubated for 2 hrs followed by LPS stimulaton measured after 22 hrs by ELISA relative to control. The format is functional.
The test system of data set [8] is RAW264.7. Briefly: Cytotoxicity against mouse RAW264.7 cells assessed as reduction in cell viability at 6.0 uM incubated for 24 hrs by MTT assay. To be noted: raw264.7, 24 h. The class given is cell-based.
A further data set relates to L02. The experiment in a line: Cytotoxicity against human LO2 cells assessed as reduction in cell viability incubated for 24 hrs by MTT assay. The format is cell-based. The note with it: L02, 24 h.
In data set [9] the test system is RAW264.7. Briefly: Antiinflammatory activity in mouse RAW264.7 cells assessed as inhibition of LPS-stimulated TNF-alpha production at 6.0 uM preincubated for 2 hrs followed by LPS stimulaton measured after 22 hrs by ELISA relative to control. The class given is functional. (An ELISA detects its analyte on a solid surface through an enzyme-linked reagent.)

Activity calls are given as the source filed them. The rule behind the calls is not given here. A value given as a limit tells only on which side of the number the result lay.

Turning to `COc1cccc2c1C(=O)c1c(O)c3c(c(O)c1C2=O)C[C@@](O)(C(=O)CO)C[C@@H]3O[C@H]1C[C@H](N)[C@H](O)[C@H](C)O1` [DOXORUBICIN], the IC50 in data set [1] turned out to be 12.2 µM; with QGY-7703, 1.37 µM; with SMMC-7721, 2.75 µM. Further, the result in the data set with Mus musculus, with HepG2 [3], with HepG2 [5] and with HepG2 [6] was Active. The Activity entry in the data set with HepG2 [2] is “Dose-dependent effect”; with HepG2 [4], under 200 mm3; in the data set with QGY-7703, “Dose-dependent effect”; in the data set on SMMC-7721 it was “Dose-dependent effect”.
Regarding `O=C1/C(=C/c2cccnc2)CN(S(=O)(=O)c2ccc(Br)cc2)C/C1=C\c1ccccc1C(F)(F)F`, the inhibition result in the data set with RAW264.7 [7] and with RAW264.7 [9] was “Active” in each case. For the same compound, the IC50 is 15.5 µM in data set [1]; 2.73 µM with HepG2 [2]; 13.3 µM with L02; 5.51 µM in the data set with QGY-7703; 5.76 µM in the data set with SMMC-7721. The Activity entry in the data set with RAW264.7 [8] was “Non-Toxic”.
`CN1C/C(=C\c2ccncc2)C(=O)/C(=C/c2ccc(F)cc2Br)C1`: the inhibition result in the data set with RAW264.7 [7] and in the data set on RAW264.7 [9] was “Active” in each case. For the same compound, the IC50 is 11.6 µM in [1]; 9.2 µM in the data set with HepG2 [2]; 12.4 µM with L02; 6.9 µM with QGY-7703; 23.8 µM in the data set with SMMC-7721. Besides, in the data set on RAW264.7 [8], the Activity result is recorded as “Non-Toxic”.
For the compound `O=C1/C(=C/c2ccncc2)CN(S(=O)(=O)c2ccc(F)cc2)C/C1=C\c1ccccc1F`, the inhibition result with RAW264.7 [7] and with RAW264.7 [9] was “inactive” each time. Moreover, the IC50 in data set [1] is 15.4 µM; in the data set on HepG2 [2], 20.3 µM; in the data set with L02, 15.6 µM; in the data set with QGY-7703, 9.1 µM; in the data set with SMMC-7721, over 20 µM. Moreover, in the data set with RAW264.7 [8], the Activity result is on record as “Non-Toxic”.
As to `O=C1/C(=C/c2cccnc2)CNC/C1=C\c1ccccc1F`, the inhibition result in the data set on RAW264.7 [7] and in the data set with RAW264.7 [9] was “inactive” each time. The IC50 in data set [1] was 14.6 µM; in the data set on HepG2 [2], 21 µM; in the data set on L02 it was 15.9 µM; in the data set on QGY-7703, 8.89 µM; in the data set with SMMC-7721, over 20 µM. Moreover, the Activity entry in the data set with RAW264.7 [8] is “Non-Toxic”.
`CN1C/C(=C\c2ccncc2)C(=O)/C(=C/c2ccccc2C(F)(F)F)C1`: the “inhibition (INH)” value in the data set with RAW264.7 [7] was under 30%. Further, the IC50 in data set [1] is 10.4 µM; in the data set on HepG2 [2] it was 3.3 µM; with L02 it was 15.8 µM; with QGY-7703, 4.5 µM; with SMMC-7721 it was 4.1 µM. Further, the Activity entry in the data set on RAW264.7 [8] is “Non-Toxic”. For the same compound, the inhibition at 6 µM in the data set with RAW264.7 [9] was under 30%.
Take `CC(=O)Nc1ccc(S(=O)(=O)N2C/C(=C\c3ccncc3)C(=O)/C(=C/c3ccccc3F)C2)cc1`: the inhibition result in the data set on RAW264.7 [7] and with RAW264.7 [9] was “inactive” throughout. Besides, the IC50 is 14.2 µM in data set [1]; 11.7 µM in the data set on HepG2 [2]; 12.3 µM in the data set with L02; 13.7 µM in the data set with QGY-7703; 13.4 µM in the data set on SMMC-7721. Further, the Activity entry in the data set with RAW264.7 [8] is listed as “Non-Toxic”.
As to `COc1cc(/C=C2\CN(C)C/C(=C\c3ccncc3)C2=O)cc(OC)c1OC`, the inhibition result in the data set with RAW264.7 [7] and in the data set with RAW264.7 [9] was “Active” each time. In addition, the IC50 in data set [1] amounted to 12.3 µM; in the data set with HepG2 [2] it was 9.8 µM; in the data set on L02, 16.4 µM; in the data set with QGY-7703, 5.9 µM; with SMMC-7721 it was 9.13 µM. The Activity result in the data set on RAW264.7 [8] is listed as “Non-Toxic”.
With `O=C1/C(=C/c2ccncc2)CNC/C1=C\c1ccccc1F`, the inhibition result in the data set on RAW264.7 [7] and in the data set on RAW264.7 [9] was “inactive” each time. The IC50 in data set [1] worked out at 13.9 µM; in the data set on HepG2 [2], 8.2 µM; in the data set on L02, 14.7 µM; in the data set with QGY-7703, 14.2 µM; in the data set with SMMC-7721, 18.4 µM. Moreover, in the data set with RAW264.7 [8], the Activity result is “Non-Toxic”.
For `O=C1/C(=C/c2ccncc2)CN(S(=O)(=O)c2ccc([N+](=O)[O-])cc2)C/C1=C\c1ccccc1F`, the inhibition result with RAW264.7 [7] and with RAW264.7 [9] was “inactive” each time. Further, the IC50 stood at 16 µM in [1]; 11.3 µM with HepG2 [2]; 18.4 µM with L02; 8.8 µM with QGY-7703; 15.8 µM with SMMC-7721. Further, the Activity result in the data set with RAW264.7 [8] is “Non-Toxic”.
`O=C1/C(=C/c2cccnc2)CN(S(=O)(=O)c2ccc(Br)cc2)C/C1=C\c1ccccc1F`: the inhibition entry in the data set with RAW264.7 [7] and in the data set on RAW264.7 [9] was “inactive” in each case. Further, the IC50 worked out at 14.2 µM in data set [1]; 8.7 µM in the data set with HepG2 [2]; 14.6 µM in the data set on L02; 12.8 µM in the data set with QGY-7703; 9.1 µM with SMMC-7721. Also, the Activity entry with RAW264.7 [8] is reported as “Non-Toxic”.
Regarding `O=C1/C(=C/c2cccnc2)CN(S(=O)(=O)c2ccc([N+](=O)[O-])cc2)C/C1=C\c1ccccc1C(F)(F)F`, the inhibition entry with RAW264.7 [7] and in the data set on RAW264.7 [9] was “Active” throughout. In addition, the IC50 in data set [1] was 14.1 µM; in the data set on HepG2 [2] it was 9.37 µM; in the data set with L02, 15.7 µM; with QGY-7703 it was 7.66 µM; in the data set with SMMC-7721, 15.9 µM. For the same compound, the Activity entry in the data set with RAW264.7 [8] was “Non-Toxic”.
In the case of `CC(=O)Nc1ccc(S(=O)(=O)N2C/C(=C\c3cccnc3)C(=O)/C(=C/c3ccccc3C(F)(F)F)C2)cc1`, the inhibition result with RAW264.7 [7] and in the data set on RAW264.7 [9] was “Active” in each case. Also, the IC50 was over 20 µM in [1]; 4.33 µM in the data set with HepG2 [2]; 15.3 µM in the data set on L02; 5.38 µM with QGY-7703; 9.83 µM in the data set on SMMC-7721. For the same compound, the Activity entry in the data set on RAW264.7 [8] is on record as “Non-Toxic”.
For the compound `COc1ccc(/C=C2\CN(C)C/C(=C\c3ccncc3)C2=O)c(OC)c1OC`, the inhibition entry in the data set on RAW264.7 [7] and in the data set with RAW264.7 [9] was “Active” in each case. Also, the IC50 in [1] is 11.9 µM; with HepG2 [2], 3.56 µM; with L02, 15.6 µM; with QGY-7703, 8.35 µM; in the data set with SMMC-7721, 9.08 µM. Also, the Activity result in the data set on RAW264.7 [8] is “Non-Toxic”.
Turning to `Cc1ccc(S(=O)(=O)N2C/C(=C\c3ccncc3)C(=O)/C(=C/c3ccccc3F)C2)cc1`, the inhibition entry with RAW264.7 [7] and with RAW264.7 [9] was “inactive” each time. In addition, the IC50 in data set [1] was 13.3 µM; in the data set with HepG2 [2], 9.7 µM; in the data set with L02, over 20 µM; with QGY-7703 it was over 20 µM; with SMMC-7721, 13.2 µM. Also, the Activity entry in the data set on RAW264.7 [8] is “Non-Toxic”.
`CN1C/C(=C\c2ccc(C#N)cc2)C(=O)/C(=C/c2cccnc2)C1`: the inhibition result with RAW264.7 [7] and in the data set on RAW264.7 [9] was “Active” in each case. In addition, the IC50 was over 20 µM in data set [1]; 12.7 µM in the data set with HepG2 [2]; over 20 µM with L02; over 20 µM in the data set with QGY-7703; 13.6 µM in the data set on SMMC-7721. In addition, in the data set on RAW264.7 [8], the Activity result is reported as “Non-Toxic”.
Consider `O=C1/C(=C/c2cccnc2)CN(S(=O)(=O)c2ccc(C(F)(F)F)cc2)C/C1=C\c1ccccc1F`, for which the inhibition entry with RAW264.7 [7] and in the data set with RAW264.7 [9] was “Active” throughout. Besides, the IC50 is 14.3 µM in data set [1]; 2.4 µM in the data set with HepG2 [2]; 11.3 µM in the data set with L02; 4.5 µM in the data set with QGY-7703; 7.9 µM in the data set with SMMC-7721. Further, in the data set on RAW264.7 [8], the Activity entry is recorded as “Non-Toxic”.
Regarding `O=C1/C(=C/c2cccnc2)CNC/C1=C\c1ccccc1C(F)(F)F`, the inhibition result in the data set with RAW264.7 [7] and in the data set on RAW264.7 [9] was “Active” throughout. The IC50 in data set [1] came out at 10.4 µM; with HepG2 [2], 5.02 µM; in the data set on L02, 11.3 µM; in the data set on QGY-7703, 3.8 µM; in the data set with SMMC-7721, 5.1 µM. In addition, in the data set on RAW264.7 [8], the Activity entry is recorded as “Non-Toxic”.

Usually IC50 stands for the concentration needed to halve the response being measured. The term inhibition denotes how much of the control response was suppressed.
